Test results from article PMC12892976, “Alkylation-based optimization of antifungal FPPS inhibitors yields a potent, broad-spectrum lipophilic zoledronate derivative” (mBio, 2025).

Assays:
Scedosporium apiospermum = experiment: checkerboard drug interaction (FICI, MICc); format: cell-based;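 note: simplified diagonal checkerboard screen of antifungal plus FPPS inhibitor pairs, with FICI computed under the Loewe additivity model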
Procedure: (§2) Drug interactions between antifungals and FPPS inhibitors were investigated using a simplified checkerboard diagonal screening method ([45]). […] FICIs were determined according to the Loewe additivity model ([17]).

Trichophyton soudanense = experiment: MIC broth microdilution (CLSI); settings: Trichophyton soudanense R-167
Procedure: (§3) Antifungal susceptibility was determined by broth microdilution according to the CLSI guidelines described in M27-Ed4 ([16]).

Pichia kudriavzevii = experiment: checkerboard drug interaction (FICI, MICc); format: cell-based;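 note: antifungal plus FPPS inhibitor interactions tested in a simplified diagonal checkerboard screen, with FICI calculated under the Loewe additivity model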
Procedure: as §2

Lomentospora prolificans = experiment: checkerboard drug interaction (FICI, MICc);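 note: simplified diagonal checkerboard screen pairing antifungals with FPPS inhibitors, FICI calculated under the Loewe additivity model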
Procedure: as §2

Candida dubliniensis [1] = experiment: checkerboard drug interaction (FICI, MICc); format: cell-based;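 note: simplified diagonal checkerboard screen pairing antifungals with FPPS inhibitors, FICI calculated under the Loewe additivity model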
Procedure: as §2

Nannizzia gypsea = experiment: checkerboard drug interaction (FICI, MICc);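 note: simplified diagonal checkerboard screen pairing antifungals with FPPS inhibitors, FICI derived using the Loewe additivity model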
Procedure: as §2

Cryptococcus tetragattii [2] = experiment: MIC broth microdilution (CLSI); format: cell-based; settings: Cryptococcus tetragattii WM779
Procedure: as §3

[3] = system: 38 species of clinically relevant fungi; experiment: MIC summary across 38 species of clinically relevant fungi; format: cell-based; settings: 38 fungal species
Excerpt: […]; Table S3). […]. […] […]. […] […].

Aspergillus parafelis = experiment: MIC broth microdilution (CLSI); format: cell-based; settings: Aspergillus parafelis DTO 341-F2
Procedure: as §3

Candida auris = experiment: MIC broth microdilution (CLSI); format: cell-based; settings: Candida auris CDC-0384
Procedure: as §3

[4] = system: Aspergillus fumigatus biofilms; experiment: biofilm XTT reduction assay (SIC80, SFICI); format: cell-based; settings: for SICc / SFICI: Aspergillus fumigatus
Excerpt: (§1) […]. […] […].

[5] = system: Candida glabrata biofilms; experiment: biofilm XTT reduction assay (SIC80, SFICI); format: cell-based; settings: for SICc / SFICI: Candida glabrata
Excerpt: as §1

[6] = system: Aspergillus flavus biofilms; experiment: biofilm XTT reduction assay (SIC80, SFICI); format: cell-based; settings: for SICc / SFICI: Aspergillus flavus
Excerpt: as §1

Fusarium solani = experiment: MIC broth microdilution (CLSI); settings: Fusarium solani 04-16-056-1862
Procedure: as §3

Cryptococcus tetragattii [7] = experiment: checkerboard drug interaction (FICI, MICc); format: cell-based;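 note: simplified diagonal checkerboard screen pairing antifungals with FPPS inhibitors, with FICI calculated under the Loewe additivity model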
Procedure: as §2

Aspergillus terreus = experiment: checkerboard drug interaction (FICI, MICc); format: cell-based;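 note: simplified diagonal checkerboard screen pairing antifungals with FPPS inhibitors, FICI derived by the Loewe additivity model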
Procedure: as §2

[8] = system: Trichophyton interdigitale; experiment: MIC broth microdilution (CLSI); format: cell-based; settings: Trichophyton interdigitale R-234
Procedure: as §3

Candida dubliniensis [9] = experiment: MIC broth microdilution (CLSI); format: cell-based; settings: Candida dubliniensis M230642
Procedure: as §3

Compound: CCCCCCCCCCn1cc[n+](CC(O)(P(=O)(O)O)P(=O)(O)O)c1 [10-ZOL, Decyl-zoledronate]
- bisphosphonate MICc (Scedosporium apiospermum; with CAS): 1
- bisphosphonate MICc (Scedosporium apiospermum; with FLC): 1
- bisphosphonate MICc (Scedosporium apiospermum; with ITR): 0.25
- bisphosphonate MICc (Scedosporium apiospermum; with KET): 0.125
- bisphosphonate MICc (Scedosporium apiospermum; with VOR): 0.125
- MIC / MEC (Trichophyton soudanense): 2 µg/mL
- FICI (Pichia kudriavzevii; AMB:10-ZOL): 1
- FICI (Pichia kudriavzevii; KET:10-ZOL): 1.5
- FICI (Pichia kudriavzevii; VOR:10-ZOL): 1.03
- bisphosphonate MICc (Pichia kudriavzevii; with 5FC): 1
- bisphosphonate MICc (Pichia kudriavzevii; with AMB): 2
- bisphosphonate MICc (Pichia kudriavzevii; with CAS): 0.5
- bisphosphonate MICc (Pichia kudriavzevii; with FLC): 0.5
- bisphosphonate MICc (Pichia kudriavzevii; with ITR): 0.25
- bisphosphonate MICc (Pichia kudriavzevii; with KET): 2
- bisphosphonate MICc (Pichia kudriavzevii; with VOR): 0.125
- FICI (Lomentospora prolificans; CAS:10-ZOL): ≥4
- FICI (Lomentospora prolificans; ITR:10-ZOL): 0.5
- bisphosphonate MICc (Lomentospora prolificans; with 5FC): 1
- bisphosphonate MICc (Lomentospora prolificans; with AMB): 2
- bisphosphonate MICc (Lomentospora prolificans; with CAS): 0.5
- bisphosphonate MICc (Lomentospora prolificans; with FLC): 1
- bisphosphonate MICc (Lomentospora prolificans; with ITR): 0.5
- bisphosphonate MICc (Lomentospora prolificans; with KET): 1
- bisphosphonate MICc (Lomentospora prolificans; with VOR): 1
- FICI (Candida dubliniensis [1]; CAS:10-ZOL): 1.18
- FICI (Candida dubliniensis [1]; KET:10-ZOL): 0.43
- FICI (Candida dubliniensis [1]; VOR:10-ZOL): 1.55
- bisphosphonate MICc (Candida dubliniensis [1]; with 5FC): 0.25
- bisphosphonate MICc (Candida dubliniensis [1]; with AMB): 0.125
- bisphosphonate MICc (Candida dubliniensis [1]; with CAS): 0.125
- bisphosphonate MICc (Candida dubliniensis [1]; with FLC): 0.25
- bisphosphonate MICc (Candida dubliniensis [1]; with ITR): 0.125
- bisphosphonate MICc (Candida dubliniensis [1]; with KET): 0.125
- bisphosphonate MICc (Candida dubliniensis [1]; with VOR): 1
- FICI (Nannizzia gypsea; AMB:10-ZOL): 2
- FICI (Nannizzia gypsea; CAS:10-ZOL): 2.25
- FICI (Nannizzia gypsea; ITR:10-ZOL): 1.5
- FICI (Nannizzia gypsea; VOR:10-ZOL): 1.5
- bisphosphonate MICc (Nannizzia gypsea; with 5FC): 0.5
- bisphosphonate MICc (Nannizzia gypsea; with AMB): 0.5
- bisphosphonate MICc (Nannizzia gypsea; with CAS): 1
- bisphosphonate MICc (Nannizzia gypsea; with FLC): 0.25
- bisphosphonate MICc (Nannizzia gypsea; with ITR): 0.25
- bisphosphonate MICc (Nannizzia gypsea; with KET): 0.25
- bisphosphonate MICc (Nannizzia gypsea; with VOR): 0.25
- MIC / MEC (Cryptococcus tetragattii [2]): 0.5 µg/mL
- overall MIC range [3]: 0.5 to 8 µg/mL
- MIC ([3]; read-out: GM MIC): 1.39 ± 1.6 µg/mL
- MIC / MEC (Aspergillus parafelis): 4 µg/mL
- MIC / MEC (Candida auris): 2 µg/mL
- SICc ([4]; FLC:10-ZOL combination): 64 µg/mL
- SFICI ([4]; FLC:10-ZOL): 0.63
- SICc ([4]; ITR:10-ZOL combination): 32 µg/mL
- SFICI ([4]; ITR:10-ZOL): 0.75
- SICc ([4]; KET:10-ZOL combination): 16 µg/mL
- SFICI ([4]; KET:10-ZOL): 0.38
- SIC80 ([4]; agent alone, Aspergillus fumigatus ATCC 204305): 128 µg/mL
- SICc ([5]; FLC:10-ZOL combination): 4 µg/mL
- SFICI ([5]; FLC:10-ZOL): 0.63
- SICc ([5]; ITR:10-ZOL combination): 4 µg/mL
- SFICI ([5]; ITR:10-ZOL): 1.00
- SICc ([5]; KET:10-ZOL combination): 2 µg/mL
- SFICI ([5]; KET:10-ZOL): 0.50
- SIC80 ([5]; agent alone, Candida glabrata CBS138): 8 µg/mL
- SICc ([6]; FLC:10-ZOL combination): 16 µg/mL
- SFICI ([6]; FLC:10-ZOL): 0.63
- SICc ([6]; ITR:10-ZOL combination): 64 µg/mL
- SFICI ([6]; ITR:10-ZOL): 1.00
- SICc ([6]; KET:10-ZOL combination): 32 µg/mL
- SFICI ([6]; KET:10-ZOL): 0.75
- SIC80 ([6]; agent alone, Aspergillus flavus ATCC 204304): 128 µg/mL
- MIC / MEC (Fusarium solani): 4 µg/mL
- FICI (Cryptococcus tetragattii [7]; CAS:10-ZOL): 2.13
- FICI (Cryptococcus tetragattii [7]; KET:10-ZOL): 0.5
- FICI (Cryptococcus tetragattii [7]; VOR:10-ZOL): 1.48
- bisphosphonate MICc (Cryptococcus tetragattii [7]; with 5FC): 0.5
- bisphosphonate MICc (Cryptococcus tetragattii [7]; with AMB): 0.063
- bisphosphonate MICc (Cryptococcus tetragattii [7]; with CAS): 1
- bisphosphonate MICc (Cryptococcus tetragattii [7]; with FLC): 0.125
- bisphosphonate MICc (Cryptococcus tetragattii [7]; with ITR): 0.125
- bisphosphonate MICc (Cryptococcus tetragattii [7]; with KET): 0.125
- bisphosphonate MICc (Cryptococcus tetragattii [7]; with VOR): 0.5
- FICI (Aspergillus terreus; 5FC:10-ZOL): 1.5
- FICI (Aspergillus terreus; CAS:10-ZOL): 3
- FICI (Aspergillus terreus; FLC:10-ZOL): 0.53
- FICI (Aspergillus terreus; ITR:10-ZOL): 1
- FICI (Aspergillus terreus; KET:10-ZOL): 1.5
- FICI (Aspergillus terreus; VOR:10-ZOL): 1.5
- bisphosphonate MICc (Aspergillus terreus; with 5FC): 0.25
- bisphosphonate MICc (Aspergillus terreus; with AMB): 0.5
- bisphosphonate MICc (Aspergillus terreus; with CAS): 1
- bisphosphonate MICc (Aspergillus terreus; with FLC): 0.25
- bisphosphonate MICc (Aspergillus terreus; with ITR): 0.25
- bisphosphonate MICc (Aspergillus terreus; with KET): 0.25
- bisphosphonate MICc (Aspergillus terreus; with VOR): 0.25
- MIC / MEC [8]: 1 µg/mL
- MIC / MEC (Candida dubliniensis [9]): 1 µg/mL
